The values that follow are results of earlier work, collected in patent US9750827B2, “Near-infrared dye-conjugated hyaluronic acid derivative and contrast agent for optical imaging including them” (CANON KABUSHIKI KAISHA, priority 2013, dated 2017).

For the data set the following is noted: known in the art.

Take `CC1(C)C(/C=C/C=C/C=C/C=C2/N(CCCCS(=O)(=O)[O-])c3ccc4ccccc4c3C2(C)C)=[N+](CCCCS(=O)(=O)[O-])c2ccc3ccccc3c21.[Na+]` [ICG, indocyanine green]: the half-life in blood result is reported as “about several minutes”.
